The text below walks through data of patent US8796329B2, “Method for controlling angiogenesis in animals” (Ziopharm Oncology, Inc., priority 2006, dated 2014).

Series [1] has as its system blood vessel density in Matrigel plugs (VEGF, FGFb, heparin as angiogenic stimuli). Briefly: Matrigel Plug in vivo assay, intravenous dosing. Set-up: species or system C57BL/6 mice. On the procedure: Female C57BL/6 mice around 10-weeks old and Matrigel Matrix High Concentration (from Becton Dickinson) mixed with 50 ng/mL VEGF, 50 ng/mL FGFb, and heparin 3 ng/mL as angiogenic stimuli were used for the Matrigel Plug experiments. There were two groups of mice, five mice in each group, with one group serving as a control and the second group expected to be treated once daily for 9 days with a compound of formula II at 100 mg/kg/dose (0.2 mL/10 g of body weight) by intravenous (i.v.) injection. The control group received oral saline as a vehicle. Each mouse received two Matrigel plugs. On Day 0, 500 μL Matrigel at 4° C. was subcutaneously injected to each side of the mouse, wherein the injection area was shaved. To increase the contact area of injected Matrigel into subcutaneous tissues and form a round shape plug, a wide subcutaneous pocket was formed by swaying the needle point right and left after a routine subcutaneous insertion. The injection was done rapidly with an appropriate size needle (21 G-25 G) to ensure the entire contents of the syringe were delivered in one plug. The injected Matrigel rapidly formed a single solid gel plug. […] Plugs from each group were collected at Day 12. The mice were euthanized and the mouse skin was pulled back to expose the plug. The plugs were dissected out and fixed in 10% formalin for histological analysis. Sections of 5 μm from paraffin-embedded plugs were stained with H&E. Blood vessel density in a cross sectional area of each Matrigel plug was analyzed using Image Pro-Plus software. For each group of mice, at least six Matrigel plugs were quantitatively analyzed to assess any statistical significant difference of microvessel density between groups. The quantitation of microblood vessel density using a compound of formula (II) is shown below.

The test system of series [2] is HUVEC (Endothelia). Briefly: CellTiter-Glo Luminescent Cell Viability Assay, HUVEC. It counts as cell-based. The conditions noted are these: Homo sapiens. As for the experimental part:
(§1) CellTiter-Glo Luminescent Cell Viability Assay (Promega Corporation) is based on quantification of ATP levels in cell cultures. The amount of ATP produced in cell culture reflects the number of viable cells. […] HUVECs and LL47 cells were seeded in 96-well plates in their growth medium. After 24 hours, various doses of the compound of formula (II) were added to both cultures side by side, having six replicates for each dose. At different treatment time points, CellTiter-Glo reagent were added to the cultures following the manufacturer's instructions; luminescence signals were measured with an EnVision™ Multilabel Reader (Perkin Elmer, Wellesley, Mass.) The blank control groups were given saline vehicle only, and positive control groups were given 10 μM T-araC (provided by Southern). Data was analyzed for the mean and standard deviation for each treatment condition. IC50 values of the compound of formula (II) against HUVEC and LL47 cell cultures were determined based on the dose response curves as shown in FIG. 1. There were several test drug concentrations with three treatment time points (2, 4, and 6 days). For the 6-day assay experiment, the culture media with different test concentration treatments was exchanged at Day 4.
(In ATP-based viability assays light output follows the ATP content of the culture.)

Series [3] concerns blood vessel density in Matrigel plugs. Briefly: Matrigel Plug in vivo assay, oral dosing. The conditions noted are these: 350 mg/kg/dose oral, once daily for 9 days, plugs Day 14, male CD2F1 mice. On the procedure:
Male CD2F1 mice were used for the Matrigel Plug experiment. There were two groups of mice, five mice in each group, with one group serving as a control and the second group was treated once daily for 9 days with a compound of formula II at 350 mg/kg/dose (0.2 mL/10 g of body weight) by oral administration in a saline solution. The control group received oral saline as a vehicle. Each mouse received two Matrigel plugs. On Day 0, 500 μL Matrigel at 4° C. was subcutaneously injected to each side of the mouse, wherein the injection area was shaved. The injection was done rapidly with an appropriate size needle (21 G-25 G) to ensure the entire contents of the syringe were delivered in one plug. The injected Matrigel rapidly formed a single solid gel plug. On Day 14, the mice were euthanized and the mouse skin was pulled back to expose the plug. The plugs were dissected out and fixed in 10% formalin for histological analysis. Sections of 5 μm from paraffin-embedded plugs were stained with haematoxylin and eosin (H&E) stain. Blood vessel density in a cross sectional area of each Matrigel plug was analyzed using Image Pro-Plus software. Each of the plugs was fixed in 10% formalin.

Series [4] has as its system LL47 (Fibroblast). Briefly: CellTiter-Glo Luminescent Cell Viability Assay, LL47. The class given is cell-based. The note with it: Homo sapiens. As for the experimental part: as §1
The subject of series [5] is P388 murine leukemia. Briefly: Response of ip implanted P388 murine leukemia to ip and po administration. It counts as in vivo, mice. The note with it: for treatment-related deaths / increase in lifespan (ILS) / median day of death: qld×9; for increase in lifespan (ILS): p=0.000 vs vehicle; for median day of death: vehicle control 11.5. The source says:
Mice were implanted ip with one million cells of P388 murine leukemia using a 23-gauge needle. The P388 tumor line was maintained as an in vivo passage. The day of tumor implantation was designated as day 0, with treatment beginning on day 1 following tumor implantation. A sufficient number of mice were implanted so that animals with body weights in a range as narrow as possible were selected for the trial.
The compound of formula (II) was formulated in saline on the first day of treatment (day 1) at a concentration of 40 mg/mL. This solution was then diluted to the lower dosing concentrations of 30, 20, and 5 mg/mL. Enough of the compound of formula (II) was prepared on day 1 for the entire dosing period. Each dosing solution was then aliquoted for daily treatments, frozen at −20° C., and thawed on each day of injection. All injections were administered on the basis of exact body weight with the injection volume being 0.2 mL/10 g body weight.
The study consisted of four treatment groups of eight mice per group and one vehicle-treated control group with ten mice, for a total of 42 mice on the first day of treatment. The study design called for the compound of formula (II) to be administered once a day for nine consecutive days (qld×9) by oral gavage at dosages of 800, 600, and 400 mg/kg/dose and by ip injection at a dosage of 100 mg/kg/dose. The control group (group 1) was treated with the vehicle (saline), which was administered po on a qld×9 injection schedule.
The study was terminated 17 days after tumor implantation. Any animal that became moribund was euthanized prior to study termination.
Number of nonspecific deaths, median days of death, and the increase in lifespan based on the median day of death and expressed as a percentage (% ILS).
The individual animals' survival time was used as the endpoint in a life tables analysis (stratified Kaplan-Meier estimation followed by the Mantel-Haenszel log-rank test) in order to statistically compare the survival data between groups.

The test system of series [6] is HUVEC (Endothelia). Briefly: 3H-thymidine incorporation assay for HUVEC. The class given is cell-based. The note with it: Homo sapiens. As for the experimental part:
HUVEC cultures were seeded and treated in 96-well plates, as described above for the CellTiter-Glo viability assay. After treatment of HUVEC cultures with the compound of formula (II), 96-well plates were pulsed with 1 μCi of ^3H-thymidine for the final 6-18 hours of culture and then harvested with a semiautomatic cell harvester onto filters that bind the DNA. Samples were counted in a PerkinElmer Microbeta scintillation and luminescence counter (Trilux) to determine the amount of 3H-TdR uptake. The data was then transferred and processed using an Excel spreadsheet program to provide for the mean and standard deviation for % of control values. The results were analyzed by calculating IC50 values and including a table showing % of control values for each compound tested. There were several test drug concentrations with three treatment time points (2, 4, and 6 days) and 6 replicates for each test concentration as shown in FIG. 2. For the 6-day assay experiment, the culture media with different test concentration treatments was exchanged at Day 4.

Values joined by “and” are separate entries in the source; they are usually repeats but may differ in a detail not shown here. Identical values can stand only once.

Turning to `C[As](C)SCC(NC(=O)CCC(N)C(=O)O)C(=O)NCC(=O)O` (stereo not drawn) [Compound of Formula (II)], the “toxicity to C57BL/6 mice” value in series [1] (100 mg/kg/dose i.v. once daily, doses 6 and 8 skipped) is listed as “higher than expected toxicity”. In addition, the “microblood vessel density, individual animal” value in series [1] (100 mg/kg/dose i.v., 7 doses, plugs collected Day 12, female C57BL/6 mice, animals #1-#4) was 3 and 2 (2×) and 0. The “microblood vessel density, Average” value in series [1] (100 mg/kg/dose i.v., 7 doses, plugs collected Day 12, female C57BL/6 mice, control average 48.8) turned out to be 1.75. The IC50 is less than 1500 µM in series [2] (48 h, Day 2); less than 1000 µM in series [2] (96 h, Day 4); less than 500 µM in series [2] (144 h, Day 6); less than 5000 µM in series [4] (48 h, Day 2); less than 2000 µM in series [4] (96 h, Day 4); less than 1500 µM in series [4] (144 h, Day 6). Besides, the IC50 is less than 100 µM in series [6] (Day 2), less than 1000 µM in series [6] (Day 4) and less than 500 µM in series [6] (Day 6). Also, in series [3], the “reduction of angiogenesis compared to the control” value is “effective in reducing angiogenesis”. Besides, the “increase in lifespan, in words” value was “tolerated and resulted in a minimal increase in lifespan” in series [5] (100 mg/kg/dose ip); “tolerated and elicited a minimal increase in lifespan” in series [5] (400 mg/kg/dose po). In addition, the values for the treatment-related deaths entry in series [5] (100 mg/kg/dose ip) and in series [5] (400 mg/kg/dose po) were “tolerated without treatment-related deaths” and “No treatment-related deaths”, respectively. In addition, the “increase in lifespan (ILS)” value in series [5] (100 mg/kg/dose ip) is 26%; in series [5] (400 mg/kg/dose po), 30%. Moreover, the figures for the “median day of death” value in series [5] (100 mg/kg/dose ip) and in series [5] (400 mg/kg/dose po) were 14.5 days and 15.0 days, respectively.

As a reminder, the IC50 is the concentration at which inhibition is half-maximal. Lower therefore signals greater potency in that assay.
